Test system: B10.Br mouse tailskin grafted on male C57BL/10 mice
Test: Skin graft rejection time (transplantation and evaluation of graft rejection)
Assay type: in vivo
Settings: i.p. from day of grafting until rejection, Example 2 30 mpk/day q.d., Example 3 10 mpk/day q.d.; for Skin Graft Rejection Time, Ex. #1 Rejection: experiment #1; for Skin Graft Rejection Time, Ex. #3 Rejection: experiment #3
Excerpt: Transplantation and Evaluation of Graft Resection
The method of skin grafting used has been previously described [D. Steinmuller, Skin Grafting. Surgical Techniques in Immunology, Methods Enzymol. […] Briefly, a tailskin from an 8–12 week old male B10.Br mouse was removed and stored in cold saline. Male C57BL/10 mice were anesthetized, and their backs were shaved. The backs were scrubbed with alcohol, and a 1 cm^2 piece of skin was removed. A similar size piece of skin was cut from the tailskin of the B10.Br mouse and placed in the excised area on the C57BL/10 animal's back. A petroleum jelly coated bandage was placed over the graft and held in place by a single surgical staple. Compounds were prepared as a suspension in 0.5% methylcellulose (Sigma, St. Louis, Mo.), and 0.025% Tween® 20 (Sigma). The compounds were administered by i.p. injection in a volume of 0.1 ml beginning on the day of skin grafting and continuing until transplant rejection. […] Compounds were administered alone or as combinations of a COX-2 and 5-LO inhibitor. Bandages were left in place until 8 days post grafting. At that time they were removed, and the grafts were observed daily or signs of rejection. Rejection was determined by complete blackening or scabbing of the grafted skin.

Compound | Skin Graft Rejection Time, Ex. #1 Rejection [days] | Skin Graft Rejection Time, Ex. #3 Rejection [days]
COc1ccc(-c2cc(C(F)F)nn2-c2ccc(S(N)(=O)=O)cc2)cc1F [Example 2, 4-[5-(3-Fluoro-4-methoxyphenyl)-3-(difluoromethyl)-1H-pyrazol-1-yl]benzenesulfonamide] | 15.7 | 17.3
CC(C#Cc1ccc(Oc2ccc(F)cc2)o1)N(O)C(N)=O (stereo not shown) [Example 3, N′-[3-[5-(4-Fluorophenoxy)furyl-2-yl]-1-methyl-2-propynyl]-N′-hydroxyurea] | 15.0 | 17.0
